The record followed here is US9682980B2, “Positive allosteric modulators of mGluR2” (BRISTOL-MYERS SQUIBB COMPANY, priority 2012, dated 2017).

Each structure is given as a SMILES string.

The target in the assay is human mGluR2 (Homo sapiens (Human), UniProt Q14416). The experiment in a line: MGluR2 cAMP assay. To be noted: HEK293 cells clonally expressing human mGluR2, 1 μM forskolin, 1 μM LY-341495. The assay is classed as cell-based. As for the experimental part: Clonally expressed human mGluR2 in HEK293 background was glutamate starved overnight in media without glutamine (GIBCO MEM 12360), containing 10% FBS, 1% penicillin streptomycin.
On the day of the assay, media was removed, cells washed with PBS, cells harvested and pelleted by centrifugation. Cell pellets were resuspended in stimulation buffer without forskolin and counted. A solution of 1.25×10^6 cells/ml was prepared and dispensed to plates using a Combi liquid handler (Thermo). A standard curve was created using a top concentration of cAMP of 1 μM in the stimulation buffer, 1:3 dilutions over 14 points in the absence of cells. Plates were read by time-resolved fluorescence at […] and a ratio was calculated via in house software, (665 nM/618 nM)*10^4. In house software converted the fluorescence value ratios to units of cAMP concentration, which is then used to calculate % inhibition for each test compound.
Compounds were added to white, standard volume 384 non-binding surface plates (Corning 3574). Cells were resuspended in stimulation buffer consisting of Hanks Balanced Salt Solution (14175-095) pH 7.0, 20 mM HEPES, 2.0 mM CaCl2, 5.0 mM MgCl2, and 1 mM IBMX (Sigma 15879), 1 μM forskolin, and 1 μM LY-341495, for 30 minutes. Buffer without forskolin was used as a negative control. Solutions of D2 and cryptate detection reagents from the CISBIO dynamic cAMP kit (62AM4PEJ) were diluted 1:40 in lysis buffer. Lysis buffer consisted of 50 mM Phosphate Buffer pH 7.0, 800 mM Potassium Fluoride, 0.2% BSA, and 1.0% Triton. Assay reaction was terminated by addition of detection reagents in lysis buffer. One hour later, plates were read on a PE Viewlux. Data was extracted, and concentration response curves generated by fitting the data to a standard 4 parameter logistic equation from which EC50 values were determined See table 1: A: <10 nM; B: 10-100 nM; C: 100-1000 nM; D: 1000-10000 nM.

Chain of human mGluR2 (Q14416 19-872): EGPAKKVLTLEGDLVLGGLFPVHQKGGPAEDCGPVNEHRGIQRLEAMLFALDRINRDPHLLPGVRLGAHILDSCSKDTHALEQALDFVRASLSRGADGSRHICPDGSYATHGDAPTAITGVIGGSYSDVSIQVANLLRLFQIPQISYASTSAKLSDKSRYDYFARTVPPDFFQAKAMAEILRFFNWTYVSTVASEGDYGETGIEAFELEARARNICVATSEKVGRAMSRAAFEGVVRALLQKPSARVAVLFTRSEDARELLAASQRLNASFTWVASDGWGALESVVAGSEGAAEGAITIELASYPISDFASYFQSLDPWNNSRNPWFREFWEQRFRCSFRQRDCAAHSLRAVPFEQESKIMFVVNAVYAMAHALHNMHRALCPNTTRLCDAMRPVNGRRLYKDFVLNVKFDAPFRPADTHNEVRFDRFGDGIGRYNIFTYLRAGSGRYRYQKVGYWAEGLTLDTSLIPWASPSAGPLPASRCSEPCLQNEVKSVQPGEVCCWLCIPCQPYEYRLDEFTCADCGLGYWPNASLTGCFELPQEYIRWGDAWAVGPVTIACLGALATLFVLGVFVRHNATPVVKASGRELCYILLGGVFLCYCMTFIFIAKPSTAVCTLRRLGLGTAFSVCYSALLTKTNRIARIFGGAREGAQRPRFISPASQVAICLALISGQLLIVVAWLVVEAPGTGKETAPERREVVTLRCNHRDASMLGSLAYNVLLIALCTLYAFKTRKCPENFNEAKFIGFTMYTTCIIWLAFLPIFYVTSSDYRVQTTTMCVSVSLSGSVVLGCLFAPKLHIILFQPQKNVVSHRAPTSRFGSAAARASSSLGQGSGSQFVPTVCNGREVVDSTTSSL

As to `Fc1ccc([C@@H]2C[C@H]2CNc2cnn3c(CC4CC4)nnc3c2Cl)cc1` (racemic) [Example 9, Trans-8-chloro-3-(cyclopropylmethyl)-N-((2-(4-fluorophenyl)cyclopropyl)methyl)-[1,2,4]triazolo[4,3-b]pyridazin-7-amine], a half-maximal effect (EC50) was put at 76 nM. Take `COc1ccccc1[C@@H]1C[C@H]1CNc1cnn2c(CC(F)(F)F)nnc2c1C(F)(F)F` (relative stereo) [Example 85, Trans-N-((2-(2-methoxyphenyl)cyclopropyl)methyl)-3-(2,2,2-trifluoroethyl)-8-(trifluoromethyl)-[1,2,4]triazolo[4,3-b]pyridazin-7-amine]: the response was half-maximal at 10 nM (EC50).

On to `Clc1c(N2CCC(c3ccccc3)CC2)ncn2c(CC3CC3)nnc12` [Example 1, 8-Chloro-3-(cyclopropylmethyl)-7-(4-phenylpiperidin-1-yl)-[1,2,4]triazolo[4,3-c]pyrimidine], for which the 50% effective concentration (EC50) came to 8 nM. Under `Cc1c(N2CCC(c3ccccc3)CC2)ncn2c(CC3CC3)nnc12` [Example 2, 3-(Cyclopropylmethyl)-8-methyl-7-(4-phenylpiperidin-1-yl)-[1,2,4]triazolo[4,3-c]pyrimidine] stands 62 nM; under `COc1c(N2CCC(c3ccccc3)CC2)ncn2c(CC3CC3)nnc12` [Example 3, 3-(Cyclopropylmethyl)-8-methoxy-7-(4-phenylpiperidin-1-yl)-[1,2,4]triazolo[4,3-c]pyrimidine], 540 nM; under `FC(F)(F)c1c(N2CCC(c3ccccc3)CC2)ncn2c(CC3CC3)nnc12` [Example 4, 3-(Cyclopropylmethyl)-7-(4-phenylpiperidin-1-yl)-8-(trifluoromethyl)-[1,2,4]triazolo[4,3-c]pyrimidine], 69 nM. Then `Clc1c(N2CCC(c3ccccc3)CC2)cnn2c(CC3CC3)nnc12` [Example 5, 8-Chloro-3-(cyclopropylmethyl)-7-(4-phenylpiperidin-1-yl)-[1,2,4]triazolo[4,3-b]pyridazine], with 19 nM; and `Cc1c(N2CCC(c3ccccc3)CC2)cnn2c(CC3CC3)nnc12` [Example 6, 3-(Cyclopropylmethyl)-8-methyl-7-(4-phenylpiperidin-1-yl)-[1,2,4]triazolo[4,3-b]pyridazine], with 182 nM; and `FC(F)(F)c1c(N2CCC(c3ccccc3)CC2)cnn2c(CC3CC3)nnc12` [Example 7, 3-(Cyclopropylmethyl)-7-(4-phenylpiperidin-1-yl)-8-(trifluoromethyl)-[1,2,4]triazolo[4,3-b]pyridazine], with 3 nM.

Take `Clc1c(N2CCC(Cc3ccccc3)CC2)ncn2c(CC3CC3)nnc12` [Example 8, 7-(4-Benzylpiperidin-1-yl)-8-chloro-3-(cyclopropylmethyl)-[1,2,4]triazolo[4,3-c]pyrimidine]: it took 61 nM to reach a half-maximal effect (EC50). Under `Fc1ccc([C@@H]2C[C@H]2CNc2cnn3c(CC4CC4)nnc3c2Cl)cc1` [Example 10, 8-Chloro-3-(cyclopropylmethyl)-N-(((1R,2R)-2-(4-fluorophenyl)cyclopropyl)methyl)-[1,2,4]triazolo[4,3-b]pyridazin-7-amine] stands 158 nM; under `Fc1ccc([C@H]2C[C@@H]2CNc2cnn3c(CC4CC4)nnc3c2Cl)cc1` [Example 11, 8-Chloro-3-(cyclopropylmethyl)-N-(((1S,2S)-2-(4-fluorophenyl)cyclopropyl)methyl)-[1,2,4]triazolo[4,3-b]pyridazin-7-amine], 60 nM. Under `COc1c(N2CCC(c3ccc(F)cc3)CC2)ncn2c(CC3CC3)nnc12` [Example 12, 3-(Cyclopropylmethyl)-7-(4-(4-fluorophenyl)piperidin-1-yl)-8-methoxy-[1,2,4]triazolo[4,3-c]pyrimidine] stands 519 nM; under `COc1c(N2CCC(c3ccc(F)cc3)CC2)ncn2c(CC(C)(C)C)nnc12` [Example 13, 7-(4-(4-Fluorophenyl)piperidin-1-yl)-8-methoxy-3-neopentyl-[1,2,4]triazolo[4,3-c]pyrimidine], 286 nM.

With `COc1c(N2CCC(O)(c3ccc(F)cc3)CC2)ncn2c(CC3CC3)nnc12` [Example 14, 1-(3-(Cyclopropylmethyl)-8-methoxy-[1,2,4]triazolo[4,3-c]pyrimidin-7-yl)-4-(4-fluorophenyl)piperidin-4-ol], the 50% effective concentration (EC50) is 782 nM. `Clc1c(N2CCN(c3ncccn3)CC2)cnn2c(CC3CC3)nnc12` [Example 15, 8-Chloro-3-(cyclopropylmethyl)-7-(4-(pyrimidin-2-yl)piperazin-1-yl)-[1,2,4]triazolo[4,3-b]pyridazine]: it took 280 nM to reach a half-maximal effect (EC50).

`CC(C)(C)Cc1nnc2c(Cl)c(N3CCN(c4ncccn4)CC3)cnn12` [Example 16, 8-Chloro-3-neopentyl-7-(4-(pyrimidin-2-yl)piperazin-1-yl)-[1,2,4]triazolo[4,3-b]pyridazine] displayed an EC50 of 437 nM.

Turning to `Fc1ccc(C2CCN(c3cnn4c(CC5CC5)nnc4c3Cl)CC2)cc1` [Example 17, 8-Chloro-3-(cyclopropylmethyl)-7-(4-(4-fluorophenyl)piperidin-1-yl)-[1,2,4]triazolo[4,3-b]pyridazine], the midpoint of the response, the EC50, lay at 46 nM. Then `CC(C)(C)Cc1nnc2c(Cl)c(N3CCC(c4ccc(F)cc4)CC3)cnn12` [Example 18, 8-Chloro-7-(4-(4-fluorophenyl)piperidin-1-yl)-3-neopentyl-[1,2,4]triazolo[4,3-b]pyridazine], with 145 nM; and `Fc1ccc(N2CCN(c3cnn4c(CC5CC5)nnc4c3Cl)CC2)cc1` [Example 19, 8-Chloro-3-(cyclopropylmethyl)-7-(4-(4-fluorophenyl)piperazin-1-yl)-[1,2,4]triazolo[4,3-b]pyridazine], with 614 nM.

Regarding `Clc1c(N2CCC3(C=Cc4ccccc43)CC2)cnn2c(CC3CC3)nnc12` [Example 20, 8-Chloro-3-(cyclopropylmethyl)-7-(spiro[indene-1,4′-piperidin]-1′-yl)-[1,2,4]triazolo[4,3-b]pyridazine], the EC50 worked out at 145 nM.

In turn, `Clc1c(NCC2(COc3ccccc3)CC2)cnn2c(CC3CC3)nnc12` [Example 21, 8-Chloro-3-(cyclopropylmethyl)-N-((1-(phenoxymethyl)cyclopropyl)methyl)-[1,2,4]triazolo[4,3-b]pyridazin-7-amine] gave an EC50 of 2310 nM. Then `COc1cccc(F)c1C1CCN(c2cnn3c(CC4CC4)nnc3c2Cl)CC1` [Example 22, 8-Chloro-3-(cyclopropylmethyl)-7-(4-(2-fluoro-6-methoxyphenyl)piperidin-1-yl)-[1,2,4]triazolo[4,3-b]pyridazine], with 3 nM; and `Fc1ccccc1C1CCN(c2cnn3c(CC4CC4)nnc3c2Cl)CC1` [Example 23, 8-Chloro-3-(cyclopropylmethyl)-7-(4-(2-fluorophenyl)piperidin-1-yl)-[1,2,4]triazolo[4,3-b]pyridazine], with 13 nM; and `Fc1cccc(C2CCN(c3cnn4c(CC5CC5)nnc4c3Cl)CC2)c1` [Example 24, 8-Chloro-3-(cyclopropylmethyl)-7-(4-(3-fluorophenyl)piperidin-1-yl)-[1,2,4]triazolo[4,3-b]pyridazine], with 25 nM. Then `Fc1ccccc1C1CCN(c2cnn3c(CC(F)(F)F)nnc3c2Cl)CC1` [Example 25, 8-Chloro-7-(4-(2-fluorophenyl)piperidin-1-yl)-3-(2,2,2-trifluoroethyl)-[1,2,4]triazolo[4,3-b]pyridazine], with 20 nM; and `COc1cccc(F)c1C1CCN(c2cnn3c(CC(F)(F)F)nnc3c2Cl)CC1` [Example 26, 8-Chloro-7-(4-(2-fluoro-6-methoxyphenyl)piperidin-1-yl)-3-(2,2,2-trifluoroethyl)-[1,2,4]triazolo[4,3-b]pyridazine], with 2 nM. Under `COc1ccccc1C1CCN(c2cnn3c(CC4CC4)nnc3c2Cl)CC1` [Example 27, 8-Chloro-3-(cyclopropylmethyl)-7-(4-(2-methoxyphenyl)piperidin-1-yl)-[1,2,4]triazolo[4,3-b]pyridazine] stands 9 nM. The compound `COc1cccc(C2CCN(c3cnn4c(CC5CC5)nnc4c3Cl)CC2)c1` [Example 28, 8-Chloro-3-(cyclopropylmethyl)-7-(4-(3-methoxyphenyl)piperidin-1-yl)-[1,2,4]triazolo[4,3-b]pyridazine] registered an EC50 of 38 nM. Under `Cc1ccccc1C1CCN(c2cnn3c(CC4CC4)nnc3c2Cl)CC1` [Example 29, 8-Chloro-3-(cyclopropylmethyl)-7-(4-(o-tolyl)piperidin-1-yl)-[1,2,4]triazolo[4,3-b]pyridazine] stands 21 nM. Compound `COc1ccc(C2CCN(c3cnn4c(CC5CC5)nnc4c3Cl)CC2)cc1` [Example 30, 8-Chloro-3-(cyclopropylmethyl)-7-(4-(4-methoxyphenyl)piperidin-1-yl)-[1,2,4]triazolo[4,3-b]pyridazine] had a concentration giving a half-maximal response (EC50) of 18 nM.

As usually defined, the EC50 is the concentration that produces a half-maximal response. Read a high EC50 as a need for much substance.
